Converted amounts (≈) assume the structure as drawn.

One experiment relates to Candida albicans. Kind of experiment: Antifungal activity against Candida albicans NCIM no. 300 after 3 to 4 days by serial plate dilution method. The note with it: for MIC: Candida albicans. The experiment is classed as functional.
Another experiment has as its system Talaromyces marneffei. Kind of experiment: Antifungal activity against Penicillium marneffei after 3 to 4 days by serial plate dilution method. The experiment is classed as functional. The settings on record: for MIC: Talaromyces marneffei.
In a further experiment the test system is Streptococcus pyogenes. Put plainly: Antibacterial activity against Streptococcus pyogenes after 24 hrs by disc diffusion method. In kind it is functional. The settings on record: for MIC: Streptococcus pyogenes, 24 h. In general terms: In agar diffusion tests the substance spreads into inoculated agar from a disc or well.
For a further experiment, the system named is Trichophyton benhamiae. Kind of experiment: Antifungal activity against Trichophyton mentagrophytes after 3 to 4 days by serial plate dilution method. The settings on record: for MIC: Trichophyton benhamiae. The experiment is classed as functional, Arthroderma benhamiae.
In the next experiment the test system is Klebsiella pneumoniae. Kind of experiment: Antibacterial activity against Klebsiella pneumoniae after 24 hrs by disc diffusion method. In kind it is functional. The settings on record: for MIC: Klebsiella pneumoniae, 24 h.
A further experiment concerns Aspergillus fumigatus. Kind of experiment: Antifungal activity against Aspergillus fumigatus NCIM no. 902 after 3 to 4 days by serial plate dilution method. The experiment is classed as functional. The note with it: for MIC: Aspergillus fumigatus.
In a further experiment the test system is Escherichia coli. Put plainly: microbe, parasite or virus in culture. In kind it is functional, ATCC 25922. The note with it: for MIC: Escherichia coli, ATCC 25922, 24 h.
Another experiment relates to Staphylococcus aureus. Kind of experiment: microbe, parasite or virus in culture. The experiment is classed as functional, ATCC 25923. The note with it: for MIC: Staphylococcus aureus, ATCC 25923, 24 h.
A further experiment relates to Pseudomonas aeruginosa. Put plainly: microbe, parasite or virus in culture. In kind it is functional, ATCC 27853. The settings on record: for MIC: Pseudomonas aeruginosa, ATCC 27853, 24 h.
The subject of a further experiment is Aspergillus flavus. Kind of experiment: Antifungal activity against Aspergillus flavus NCIM no. 524 after 3 to 4 days by serial plate dilution method. The settings on record: for MIC: Aspergillus flavus. In kind it is functional.

Description for Escherichia coli: Antibacterial activity against Escherichia coli ATCC 25922 after 24 hrs by disc diffusion method
Description for Pseudomonas aeruginosa: Antibacterial activity against Pseudomonas aeruginosa ATCC 27853 after 24 hrs by disc diffusion method
Description for Staphylococcus aureus: Antibacterial activity against Staphylococcus aureus ATCC 25923 after 24 hrs by disc diffusion method

On to `Cc1ccc(OCC(=O)N2N=C(c3ccccc3)CC2(O)c2cc(F)c(Cl)cc2Cl)cc1` (stereo not drawn), for which the “inhibition zone (IZ)” value in the experiment with Candida albicans turned out to be 15 mm; in the experiment with Talaromyces marneffei, 12 mm; with Streptococcus pyogenes it was 17 mm; with Trichophyton benhamiae it was 10 mm; in the experiment with Klebsiella pneumoniae, 18 mm; with Aspergillus fumigatus it was 11 mm. The “inhibition zone (IZ)” value in the experiment on Escherichia coli stood at 15 mm; in the experiment with Staphylococcus aureus, 17 mm; in the experiment with Pseudomonas aeruginosa, 18 mm; in the experiment on Aspergillus flavus, 11 mm. Further, the MIC came to 12.5 µg/mL (≈ 26.4 µM) in the experiment on Candida albicans; 12.5 µg/mL (≈ 26.4 µM) against Talaromyces marneffei; 12.5 µg/mL (≈ 26.4 µM) against Streptococcus pyogenes; 25 µg/mL (≈ 52.8 µM) against Trichophyton benhamiae; 6.25 µg/mL (≈ 13.2 µM) against Klebsiella pneumoniae; 12.5 µg/mL (≈ 26.4 µM) in the experiment with Aspergillus fumigatus. Besides, the MIC stood at 12.5 µg/mL (≈ 26.4 µM) against Escherichia coli, 6.25 µg/mL (≈ 13.2 µM) against Staphylococcus aureus, 6.25 µg/mL (≈ 13.2 µM) against Pseudomonas aeruginosa and 25 µg/mL (≈ 52.8 µM) against Aspergillus flavus.

As for `COc1ccc(C2=NN(C(=O)COc3ccc(Cl)cc3)C(O)(c3cc(F)c(Cl)cc3Cl)C2)cc1OC` (stereo not drawn), the “inhibition zone (IZ)” value in the experiment with Candida albicans turned out to be 10 mm; in the experiment with Streptococcus pyogenes, 10 mm; with Escherichia coli, 8 mm; in the experiment with Aspergillus flavus it was 9 mm. Besides, the MIC against Candida albicans is 25 µg/mL (≈ 45.1 µM); against Talaromyces marneffei, more than 100 µg/mL; in the experiment on Streptococcus pyogenes, 25 µg/mL (≈ 45.1 µM); with Trichophyton benhamiae it was more than 100 µg/mL; against Klebsiella pneumoniae, more than 100 µg/mL; in the experiment with Aspergillus fumigatus, more than 100 µg/mL. Also, the MIC against Escherichia coli is 25 µg/mL (≈ 45.1 µM); against Staphylococcus aureus it was more than 100 µg/mL; against Pseudomonas aeruginosa, more than 100 µg/mL; against Aspergillus flavus, 25 µg/mL (≈ 45.1 µM).

With `Cc1ccc(OCC(=O)N2N=C(c3ccc(Cl)cc3)CC2(O)c2cc(F)c(Cl)cc2Cl)cc1` (stereo not drawn), the “inhibition zone (IZ)” value came to 19 mm with Candida albicans; 17 mm in the experiment with Talaromyces marneffei; 18 mm with Streptococcus pyogenes; 20 mm with Trichophyton benhamiae; 18 mm in the experiment on Klebsiella pneumoniae; 19 mm in the experiment with Aspergillus fumigatus. In addition, the “inhibition zone (IZ)” value in the experiment with Escherichia coli is reported as 17 mm; in the experiment with Staphylococcus aureus, 19 mm; in the experiment with Pseudomonas aeruginosa, 24 mm; in the experiment with Aspergillus flavus, 15 mm. Also, the MIC in the experiment on Candida albicans is 12.5 µg/mL (≈ 24.6 µM); against Talaromyces marneffei, 6.25 µg/mL (≈ 12.3 µM); against Streptococcus pyogenes, 12.5 µg/mL (≈ 24.6 µM); against Trichophyton benhamiae it was 6.25 µg/mL (≈ 12.3 µM); with Klebsiella pneumoniae, 6.25 µg/mL (≈ 12.3 µM); against Aspergillus fumigatus, 6.25 µg/mL (≈ 12.3 µM). The MIC against Escherichia coli is 12.5 µg/mL (≈ 24.6 µM); against Staphylococcus aureus, 6.25 µg/mL (≈ 12.3 µM); against Pseudomonas aeruginosa, 6.25 µg/mL (≈ 12.3 µM); against Aspergillus flavus it was 12.5 µg/mL (≈ 24.6 µM).

As for `O=C(COc1ccc(Cl)cc1Cl)N1N=C(c2ccc(Cl)cc2Cl)CC1(O)c1cc(F)c(Cl)cc1Cl` (stereo not drawn), the MIC with Candida albicans was more than 100 µg/mL; in the experiment with Talaromyces marneffei, more than 100 µg/mL; against Streptococcus pyogenes, more than 100 µg/mL; against Trichophyton benhamiae, 25 µg/mL (≈ 41.9 µM); against Klebsiella pneumoniae, more than 100 µg/mL; against Aspergillus fumigatus, more than 100 µg/mL. Also, the MIC in the experiment on Escherichia coli is 12.5 µg/mL (≈ 20.9 µM); in the experiment with Staphylococcus aureus it was more than 100 µg/mL; with Pseudomonas aeruginosa, 25 µg/mL (≈ 41.9 µM); in the experiment with Aspergillus flavus, 25 µg/mL (≈ 41.9 µM). Also, the “inhibition zone (IZ)” value came to 10 mm in the experiment with Trichophyton benhamiae, 17 mm in the experiment with Escherichia coli, 10 mm in the experiment on Pseudomonas aeruginosa and 12 mm in the experiment on Aspergillus flavus.

For the origin of these results see ChEMBL document CHEMBL1144479, “Synthesis and antimicrobial studies on novel chloro-fluorine containing hydroxy pyrazolines” (2007).
